The source of these data is patent EP4692061A1, “LOW-MOLECULAR-WEIGHT COMPOUND HAVING CEREBLON-BINDING ACTIVITY, AND USE THEREOF” (Aevis Bio, Inc., priority 2023, dated 2024).

The target of one data set is cereblon (CRBN) (Homo sapiens, UniProt Q96SW2). Nature of the data set: In vitro CRBN binding assay (AlphaScreen, competitive inhibition of the PROTAC assay). The note with it: Table 1; AlphaScreen, PROTAC Optimization Kit for BET Bromodomain-Cereblon Binding; read-out: Alpha IC50. (Bead proximity is the source of the signal in Alpha formats.)
The subject of another data set is MM.1S. Nature of the data set: Tumor cell viability, CCK-8 assay, MM.1S. Format: cell-based. The note with it: MM.1S (human multiple myeloma); compound treatment 1uM; 5 days. The procedure:
(§1) To examine whether the compounds having CRBN-binding activity according to the present invention exert tumor cell apoptosis effects, the assay was conducted using various human cancer cell lines, including human multiple myeloma cell lines (MM.1S and MM.1R-LR), a human breast cancer cell line (MDA-MB-231), a human lung cancer cell line (A549), a human rhabdomyosarcoma cell line (RD), and a human lymphoma cell line (Jeko-1).
(§2) The MM.1S, MM.1R-LR, MDA-MB-231, A549, RD, and Jeko-1 cell lines were obtained from the American Type Culture Collection (ATCC, Manassas, VA, USA) and cultured in RPMI 1640 medium (Corning, MD, USA) or DMEM (Corning, MD, USA) supplemented with 10% fetal bovine serum (FBS) (Corning, MD, USA), 100 U/mL penicillin (Corning, MD, USA), and 100 µg/mL streptomycin (Corning, MD, USA) at 37°C in a 5% CO2 incubator for 24 hours. The cells were seeded at a density of 1 × 10^4 cells/well in 96-well plates and incubated for 24 hours. After incubation, the test compounds dissolved in dimethyl sulfoxide (DMSO, CAS No.: 67-68-5) were serially diluted to a final concentration of 10 µM and applied to the cells. Following an additional incubation for 2 to 5 days, the analysis was performed using a CCK-8 assay kit (Dojindo, Japan) according to the manufacturer's instructions.
A general note: Formazan colour is commonly taken as a measure of viable cells.

For the next data set, the system named is MM.1R-LR. Nature of the data set: Tumor cell viability, CCK-8 assay, MM.1R-LR. The note with it: MM.1R-LR (drug-resistant human multiple myeloma); compound treatment 1uM; 5 days. The data set is classed as cell-based. The procedure: as §1, §2
Another data set concerns MDA-MB-231. Nature of the data set: Tumor cell viability, CCK-8 assay, MDA-MB-231. Format: cell-based. The conditions noted are these: MDA-MB-231 (human breast cancer); compound treatment 1uM; 2 days. The method, then: as §1, §2
The subject of the next data set is A549. Description: Tumor cell viability, CCK-8 assay, A549. The data set is classed as cell-based. The conditions noted are these: A549 (human lung cancer); compound treatment 1uM; 2 days. The procedure:
as §1, §2

The next data set relates to RD. Nature of the data set: Tumor cell viability, CCK-8 assay, RD. Format: cell-based. The note with it: RD (human rhabdomyosarcoma); compound treatment 1uM; 3 days. The method, then: as §1, §2
A further data set relates to Jeko-1. Nature of the data set: Tumor cell viability, CCK-8 assay, Jeko-1. The note with it: Jeko-1 (human lymphoma); compound treatment 1uM; 3 days. The data set is classed as cell-based. The method, then: as §1, §2

`CCCCCCCc1ccc(C(=O)Nc2cccc(S(=O)(=O)Nc3cccc(C4CCC(=O)NC4=O)c3)c2)cc1` (stereo not drawn) [AEV40204, N-(3-(N-(3-(2,6-dioxopiperidin-3-yl)phenyl)sulfamoyl)phenyl)-4-heptylbenzamide]: the IC50 (in general, the concentration that gives 50% inhibition) on cereblon (CRBN) turned out to be 440 nM. Besides, the “Cell viability (% of control)” value in the data set on MM.1S is listed as 3.3 % of control; with MM.1R-LR, 49.4 % of control; with MDA-MB-231, 40.4 % of control; in the data set on A549, 33.6 % of control; in the data set with RD it was 50.8 % of control; in the data set on Jeko-1 it was 11.6 % of control.

In the case of `CCCCCCCCc1ccc(C(=O)Nc2cccc(S(=O)(=O)Nc3cccc(C4CCC(=O)NC4=O)c3)c2)cc1` (stereo not drawn) [AEV40264, N-(3-(N-(3-(2,6-dioxopiperidin-3-yl)phenyl)sulfamoyl)phenyl)-4-octylbenzamide], the IC50 at cereblon (CRBN) stood at 320 nM. Also, the “Cell viability (% of control)” value is listed as 13.3 % of control with MM.1S; 79.8 % of control with MM.1R-LR; 46.3 % of control in the data set with MDA-MB-231; 61.8 % of control in the data set with A549; 67.9 % of control with RD; 5.8 % of control with Jeko-1.

Consider `O=C1CCC(c2cccc(NS(=O)(=O)c3cccc(NC(=O)c4ccc(CCCCl)cc4)c3)c2)C(=O)N1` (stereo not drawn) [AEV41004, 4-(3-chloropropyl)-N-(3-(N-(3-(2,6-dioxopiperidin-3-yl)phenyl)sulfamoyl)phenyl)benzamide], for which, on cereblon (CRBN), the IC50 was 1570 nM. Also, the “Cell viability (% of control)” value in the data set with MM.1S is listed as 10.5 % of control; in the data set on MM.1R-LR it was 63.8 % of control; in the data set on MDA-MB-231, 83.5 % of control; in the data set with A549 it was 101.9 % of control; with RD, 78.6 % of control.

Regarding `O=C1CCC(c2cccc(NS(=O)(=O)c3cccc(NC(=O)c4ccc(CCCCCl)cc4)c3)c2)C(=O)N1` (stereo not drawn) [AEV41005, 4-(4-chlorobutyl)-N-(3-(N-(3-(2,6-dioxopiperidin-3-yl)phenyl)sulfamoyl)phenyl)benzamide], the IC50 at cereblon (CRBN) was 1200 nM. For the same compound, the “Cell viability (% of control)” value in the data set on MM.1S is 10.7 % of control; in the data set on MM.1R-LR it was 58.2 % of control; in the data set on MDA-MB-231 it was 42.2 % of control; in the data set with A549, 36.8 % of control; with RD it was 28.7 % of control; in the data set with Jeko-1, 4.1 % of control.

Consider `CCc1ccc(C(=O)Nc2cccc(S(=O)(=O)Nc3cccc(C4CCC(=O)NC4=O)c3)c2)cc1` (stereo not drawn) [AEV41010, N-(3-(N-(3-(2,6-dioxopiperidin-3-yl)phenyl)sulfamoyl)phenyl)-4-ethylbenzamide], for which, at cereblon (CRBN), the IC50 stood at 420 nM. Also, the “Cell viability (% of control)” value in the data set with MM.1S is 88.4 % of control; with MM.1R-LR, 66.1 % of control; with MDA-MB-231, 95.7 % of control; with A549, 96.7 % of control.

In the case of `CCCc1ccc(C(=O)Nc2cccc(S(=O)(=O)Nc3cccc(C4CCC(=O)NC4=O)c3)c2)cc1` (stereo not drawn) [AEV41011, N-(3-(N-(3-(2,6-dioxopiperidin-3-yl)phenyl)sulfamoyl)phenyl)-4-propylbenzamide], the IC50 at cereblon (CRBN) stood at 700 nM. Further, the “Cell viability (% of control)” value is given as 56.9 % of control in the data set with MM.1S, 66.1 % of control with MM.1R-LR, 96.7 % of control with MDA-MB-231 and 98.9 % of control with A549.

In the case of `CCCCc1ccc(C(=O)Nc2cccc(S(=O)(=O)Nc3cccc(C4CCC(=O)NC4=O)c3)c2)cc1` (stereo not drawn) [AEV41012, 4-butyl-N-(3-(N-(3-(2,6-dioxopiperidin-3-yl)phenyl)sulfamoyl)phenyl)benzamide], the IC50 on cereblon (CRBN) stood at 940 nM. Moreover, the “Cell viability (% of control)” value in the data set with MM.1S is 7.4 % of control; with MM.1R-LR it was 56.7 % of control; in the data set on MDA-MB-231, 78.7 % of control; in the data set with A549, 94.0 % of control; with RD, 79.7 % of control; in the data set with Jeko-1, 37.7 % of control.

`CCCCCc1ccc(C(=O)Nc2cccc(S(=O)(=O)Nc3cccc(C4CCC(=O)NC4=O)c3)c2)cc1` (stereo not drawn) [AEV41013, N-(3-(N-(3-(2,6-dioxopiperidin-3-yl)phenyl)sulfamoyl)phenyl)-4-pentylbenzamide]: the IC50 at cereblon (CRBN) is 360 nM. The “Cell viability (% of control)” value in the data set with MM.1S is on record as 15.3 % of control; in the data set with MM.1R-LR, 55.2 % of control; in the data set with MDA-MB-231, 38.5 % of control; in the data set on A549, 25.8 % of control; with RD, 30.0 % of control; in the data set on Jeko-1 it was 11.8 % of control.

Regarding `O=C1CCC(c2cccc(NS(=O)(=O)c3cccc(NC(=O)c4ccc(CCCCCCl)cc4)c3)c2)C(=O)N1` (stereo not drawn) [AEV41047, 4-(5-chloropentyl)-N-(3-(N-(3-(2,6-dioxopiperidin-3-yl)phenyl)sulfamoyl)phenyl)benzamide], the IC50 at cereblon (CRBN) was determined as 1880 nM. Besides, the “Cell viability (% of control)” value in the data set on MM.1S is 14.9 % of control; in the data set on MM.1R-LR, 56.9 % of control; with MDA-MB-231, 28.2 % of control; with A549, 32.2 % of control; in the data set on RD, 20.5 % of control; in the data set with Jeko-1, 15.7 % of control.

For `O=C1CCC(c2cccc(NS(=O)(=O)c3cccc(NC(=O)c4ccc(CCCCCCCl)cc4)c3)c2)C(=O)N1` (stereo not drawn) [AEV41048, 4-(6-chlorohexyl)-N-(3-(N-(3-(2,6-dioxopiperidin-3-yl)phenyl)sulfamoyl)phenyl)benzamide], at cereblon (CRBN), the IC50 stood at 2590 nM. For the same compound, the “Cell viability (% of control)” value is recorded as 10.8 % of control in the data set with MM.1S; 51.5 % of control with MM.1R-LR; 45.6 % of control in the data set on MDA-MB-231; 47.0 % of control in the data set with A549; 54.0 % of control in the data set on RD; 13.0 % of control in the data set with Jeko-1.

With `CCCCCCc1ccc(C(=O)Nc2cccc(S(=O)(=O)Nc3cccc(C4CCC(=O)NC4=O)c3)c2)cc1` (stereo not drawn) [AEV41083, N-(3-(N-(3-(2,6-dioxopiperidin-3-yl)phenyl)sulfamoyl)phenyl)-4-hexylbenzamide], the IC50 on cereblon (CRBN) worked out at 910 nM. The “Cell viability (% of control)” value in the data set on MM.1S was 17.8 % of control; in the data set on MM.1R-LR it was 54.7 % of control; in the data set on MDA-MB-231 it was 35.5 % of control; in the data set on A549, 29.5 % of control; in the data set on RD, 31.4 % of control; in the data set on Jeko-1 it was 9.7 % of control.
